row,Structure (SMILES),melting point [°C]
1,Cn1cc(C2=CCC3(CC2)OCCO3)c2cc(C#N)ccc21,65 to 67
2,O=C1c2cccc3cccc(c23)C(=O)N1CCCCCBr,113 to 115
3,O=C(C=Cc1ccc(CN(CCO)C2CCCCC2)cc1)Nc1ccc(-c2ccc(Cl)cc2)cc1,178 to 179
4,COc1nc(OC)nc(-n2c(C(F)(F)F)nc3cc(C)ccc32)n1,137 to 140
5,CCOC(=O)c1cnn(C)c1C(=O)Nc1ccn2nc(-c3cccc(F)n3)nc2c1,290
6,CCCCCCCCCCOc1ccc2c(=O)c3cccc(C(=O)O)c3oc2c1CCC(=O)O,> 210
7,CC(C)(C)NC(=O)CP(=O)(O)O,163 to 165
8,CS(=O)(=O)N1CCSc2cccc(Cl)c2C1,85 to 86
9,O=C(NC(CO)CNS(=O)(=O)c1ccc(Oc2ccccc2)cc1)OCc1ccccc1 (centres undefined),86 to 89
10,CCCCCCCCCCCCCCCCCCN=C=NCCCCCCCCCCCCCCCCCC,65
11,CCc1csc2nc(C(=O)OC)cn12,147 to 149
12,O=C(CN1C(=O)c2ccccc2C1=O)c1cc(O)c(O)c([N+](=O)[O-])c1,214 to 216
13,COc1cc(CC(=O)Nc2ccc(I)cc2)ccc1NC(=O)Nc1ccccc1C,> 200
14,CC(C)c1cc(O)cc2c1C(=O)N(CCl)S2(=O)=O,149 to 150
15,COc1cc(Nc2c(C#N)cnc3cc(C#Cc4cnn(CCN5CCOCC5)c4)sc23)c(Cl)cc1Cl,> 200
16,C#CCNC(=O)N1CC(c2ccc(Cl)c(Cl)c2)C1,106 to 108
17,COC(=O)C=C(c1ccccc1)c1ccc2nc(N)n(S(=O)(=O)C(C)C)c2c1,160 to 165
18,O=C(OC1COC1)c1sccc1OS(=O)(=O)Cl,92 to 94
19,COCc1nc(C(C)(C)O)c(C(=O)OC)[nH]1,94.5 to 96
20,CCOc1nc2c(nc1C(=O)Nc1nccs1)c(C)nn2CC,158 to 159
21,Nc1c(-c2ccc(O)cc2)ncnc1-c1ccc(Cl)cc1Cl,97.3 to 98.2
22,CN1CCN(c2ccc(NC=C3C(=O)NC(=O)c4ccc(OCCN5CCOCC5)cc43)cc2)CC1,142 to 143
23,O=C(NO)c1ccc(C(=O)Nc2cccc(Nc3nc(-c4cccnc4)cs3)c2)cc1,206
24,CC(C)(C)OC(=O)Nc1ccc(Nc2ncnc3[nH]cc(C(=O)c4ccccc4)c23)cc1,274 to 280
25,O=[N+]([O-])c1ccc(Nc2cccc(C(F)(F)C(F)(F)C(F)(F)C(F)(F)C(F)(F)C(F)(F)C(F)(F)C(F)(F)F)c2)c([N+](=O)[O-])c1,124 to 125

row,Structure (SMILES),melting point [°C]
1,CC(=NN=c1[nH]cccc1Cl)C(F)(F)F,64 to 64.5
2,CCCCCC(CC(=O)Nc1cc(CO)ccc1C(C)(C)C)c1ccc(OC)cc1OC (centres undefined),125 to 126
3,CC(C)(C)NC(=O)OC1OCN(c2cccc(C(F)(F)F)c2)C1=O (centres undefined),125 to 126
4,CC(=O)OCC(=O)C1(O)CCC2C3CCC4=CC(=O)C=CC4(C)C3(F)C(O[Si](C)(C)C)CC21C (centres undefined),203 to 204
5,CCc1c(CCN2CCC(c3nsc4cc(F)ccc34)CC2)sc2c1CCN(C(C)=O)C2,156 to 160
6,N=C(NC(=O)NCCCCCCNC(=O)NC(=N)Nc1ccc(Cl)cc1)Nc1ccc(Cl)cc1,186 to 190
7,COc1ncccc1-c1cccn2nc(Nc3ccc(C4CCN(CC(=O)N(C)C)CC4)cc3)nc12,173 to 175
8,Cc1ccc(C2=CCNCC2)nc1,78 to 80
9,Cc1ccc(-c2cnc(-c3ccc(C(F)(F)F)cc3)s2)s1,150 to 152
10,CCC(=O)C1=C(O)CC(c2ccc3sccc3c2)CC1=O (centres undefined),134
11,Cc1ccc(Oc2ccc([N+](=O)[O-])cc2-c2ncon2)c(O)c1,159 to 160
12,CCOC(=O)C1=C(C)NN=C(C(=O)OC)C1c1ccc([N+](=O)[O-])cc1 (centres undefined),205 to 206
13,CCC(=O)Nc1cccc(NC(=O)CC(C)(OC)OC)c1,115
14,Cc1cccc(-c2nc(-c3ccc(S(C)=O)cc3)sc2-c2cc(C)nc(C)c2)c1 (centres undefined),133 to 134
15,COc1cc(C=Cc2ccccc2)cc(OC)c1,56.4
16,Cc1nc2ccc(Nc3nccc(-c4ccc(N5CCNCC5)nc4)n3)cc2[nH]1,245 to 250
17,COC(=O)c1cc(N)c(C(C)(C)C)c(N)c1,71 to 73
18,CCCCc1nc2c(N)nc3ccccc3c2n1CCCNC(=O)NC1CCCCC1,200 to 201
19,O=S(=O)(Nc1ccc(Cl)cc1-c1nc2ccccc2[nH]1)c1ccc(Cl)cc1,225 to 228
20,COC(=O)CCCOc1ccc2nc3[nH]c(=O)[nH]c3cc2c1,299 to 301
21,O=Cc1ccc2c(ccc3ccccc32)c1,58 to 60
22,O=C(O)Cc1cccc2c(=O)cc(-c3cc(F)cc(F)c3)oc12,221 to 223
23,CCCCN1CCn2c1nc(C(=O)NCc1ccc(F)cc1-n1cnc(C)n1)c(O)c2=O,214
24,Cc1cc2c(c(C)c1NC(=O)OC(C)(C)C)CC(C)(C)O2,121 to 123
25,NC(=O)c1cccc2nc3n(c12)CCCN3c1ccc(Cl)cc1Cl,198 to 200

row,Structure (SMILES),melting point [°C]
1,CCCc1nnc2n1N=C(c1ccc([N+](=O)[O-])cc1)c1cc(OC)c(Br)cc1C2,238 to 240
2,Cc1ccc(CC(N)=O)c(C)c1OC(F)F,136 to 137
3,COc1ccc(OCC(O)COc2cccc(O)c2C(C)=O)cc1 (centres undefined),100 to 102
4,CC(=O)c1ccc(S(=O)(=O)NCCO)cc1,119 to 121
5,COC(=O)c1ccc(CBr)c(OC)c1,87 to 90
6,CS(=O)(=O)c1cccc(NC(=O)c2cnn3c(C(F)(F)F)cc(-c4ccc(F)c(F)c4)nc23)c1,256
7,O=C(O)c1ccc(-c2coc(-c3ccc(Cl)cc3)n2)cc1,288 to 289
8,CN1C(=O)CC[C@]2(C)c3ccc(C#Cc4ccccc4)cc3CC[C@@H]12,205 to 208
9,NS(=O)(=O)c1ccc(-n2cc(C(F)(F)F)nc2-c2ccc(-c3cscn3)cc2)cc1F,130 to 133
10,Clc1ccc(N=Cc2ccc(-c3noc4ccccc34)cc2)cc1,164 to 165
11,CCC(C)C1C(=O)NN(c2ccc(Cl)c(Cl)c2)C1=O (centres undefined),118 to 120
12,Cc1c2c(cn1C)CN=C(c1ccccc1Cl)c1cc(Cl)ccc1-2,200 to 202
13,CCOC(=O)c1nc2cccc(F)c2nc1C,87 to 89
14,CCOC(=O)C1=C(N)NC(N)=C(C(=O)OCC)C1c1ccccc1C(F)(F)F,191
15,N#CCc1c(Cl)nc(-c2ccccc2)n1Cc1ccccc1,121 to 122
16,CSCON=C(C(=O)O)c1nccc(NC=O)n1,80 to 85
17,O=C(/C=C/c1ccc(O)c(O)c1)Nc1ccccc1C(=O)O,204 to 206
18,CCOC(=O)N(CC(=O)O)C(=O)c1c(OCC(F)(F)F)ccc2c(C(F)(F)F)c(OC)ccc12,166 to 167
19,O=[N+]([O-])c1ccc(S(=O)(=O)N2CC3CN(Cc4ccccc4)CC(C2)O3)cc1,98.4 to 101
20,O=c1c2c(cnn1-c1ccccc1)C(Cc1ccccc1)NCCS2 (centres undefined),174 to 175
21,CC(=O)Nc1ccc(C(=O)Nc2c(C)cccc2C)cc1,293 to 295
22,Cc1oc2c(OC(C)C(N)=O)cccc2c1C (centres undefined),116 to 119
23,O=S(=O)(O)CC(O)CNCC(O)O (centres undefined),189 to 190
24,CN(C)NC(=O)N(C)C1c2ccccc2Oc2ccccc21,120 to 123
25,O=Cc1cn(Cc2ccc(OCc3ccccc3)cc2)nc1OCc1ccc(OCc2ccccc2)cc1,138 to 139

row,Structure (SMILES),melting point [°C]
1,CN(C)c1cccc(-c2nc3c(N[C@H]4[C@@H](C(N)=O)[C@@H]5C=C[C@H]4C5)ccnc3[nH]2)c1,200 to 204
2,CC(O)c1onc(-c2ccccc2Cl)c1C(=O)c1nnn(Cc2cc(C(F)(F)F)cc(C(F)(F)F)c2)c1N1CCOCC1 (centres undefined),145 to 146
3,CCCCS(=O)(=O)NCC1CCN(C(=O)OCc2ccccc2)CC1,83 to 85
4,Cc1ccc(COc2ccc3c(c2)c(C=CC(=O)O)cn3CC(=O)N(C)CCc2ccccc2)cc1,164 to 166
5,CC(C)(c1ccc(Oc2ccc(N3C(=O)C=CC3=O)cc2)cc1)c1ccc(C(C)(C)c2ccc(Oc3ccc(N4C(=O)C=CC4=O)cc3)cc2)cc1,214 to 216
6,CS(=O)(=O)c1ccc(C(CC2CCCC2)C(=O)Nc2ncc(C(N)=O)s2)cc1 (centres undefined),155 to 160
7,CS(=O)(=O)N1CCC(COCc2cc(C(F)(F)F)cc(C(F)(F)F)c2)(c2ccccc2)CC1,102 to 104
8,O=C(Nc1ccc(-n2nc(C(F)(F)F)cc2C(F)(F)F)cc1)c1ccc2c(c1)OCO2,222 to 224
9,CCCCCCCCNC(=O)n1cc(F)c(=O)[nH]c1=O,98 to 100
10,Cc1c[nH]c(-c2ccc(OCC(O)CO)cc2)n1 (centres undefined),196 to 199
11,Cc1cc(C)c2cccc(OCc3c(Cl)ccc(S(=O)(=O)N4CCC[C@H]4C(=O)N4CCN(C(=O)c5cccc(C(N)=NO)c5)CC4)c3Cl)c2n1,160
12,COc1cc(Nc2ccnc(Nc3cc(OC)c(OC)c(OC)c3)n2)cc(OC)c1OC,180
13,COC(=O)c1cc([N+](=O)[O-])ccc1OC(C)=O,70 to 72
14,CC(=O)OCC1OC(OS(C)(=O)=S)C(OC(C)=O)C(OC(C)=O)C1OC(C)=O (centres undefined),118 to 119
15,NC(=O)CCN1CC2CN(Cc3ccccc3)CC(C1)O2,157 to 159
16,CC(C)c1cc(C(C)C)c(S(=O)(=O)n2cc3c4c(cccc42)C(=O)CC3)c(C(C)C)c1,124 to 130
17,CN(C)C(N)=C(C#N)C(N)=S,186 to 187
18,COC(=O)C1=C(C(=O)OC)C2(c3ccc(Cl)cc3Cl)CCC1O2 (centres undefined),78
19,CC(C)(C)OC(=O)N1CCN(c2ccc(C#N)c(F)c2)CC1,130 to 131
20,CCCCCCCCCCCCc1cc(C)on1,35 to 38
21,CSC(=N[N+](=O)[O-])NC(C)=O,109 to 110
22,Cc1c(Br)c(N2CC[C@H](N(C)C)C2)c2oc(C3CC3)nc2c1C#N,82 to 86
23,CN(CC(=O)c1ccc(Br)cc1)C(=O)OC(C)(C)C,87 to 90
24,Cn1cc(-c2c(-c3ccc(F)cc3)nn3ccncc23)ccc1=O,222 to 223

# Reference: a melting point compilation (Tetko et al.; mined from patent text by program, amines drawn as free bases though some values may be those of a salt)
